Reference: patent publication US8227616B2, “Cyanopyridine antibacterial agents and methods of use thereof” (Wisconsin Alumni Research Foundation, priority 2006, dated 2012)
≈ marks a conversion by molar mass, not a printed value. Where two headings read alike, the source gives them in different places.

Tests used:
S. aureus ATCC 10390 [1] = assay: MIC determination with authentic compounds resynthesized in solution; type: cell-based, Staphylococcus aureus; settings: for MIC: Staphylococcus aureus, ATCC10390
Procedure: For estimated MIC determination, DMSO was added to the dried compound residue obtained from a single spot to afford ca. 100 μL of a 2 mM stock solution. Aliquots (5 μL) of these solutions were added to a 96-well plate, followed by 195 μL of diluted S. aureus 10390 (10^6 CFUs/mL) to yield ca. 50 μM final concentrations. The plates were swirled for 1 h to ensure compound dissolution, incubated for 12 h at 37° C., and the absorbance at 595 nm was recorded using a plate reader. […] Actual MIC values were determined for lead compounds resynthesized in solution using an analogous procedure with solutions of known concentration (see).
Dose response growth inhibition curves were determined for each active compound (resynthesized in solution) against S. aureus 10390 (SA) and methicillin-resistant S. aureus 33591 (MRSA). […] MIC assays were performed in quadruplicate.

S. aureus 10390 = assay: Time-dependent bacterial killing curves; type: cell-based, Staphylococcus aureus; settings: 0.5x to 4x MIC, 0-6 h
Procedure: Solutions of compounds 4Bv, 6Ao, 9Cf, and linezolid were prepared in DMSO over a range of concentrations. […] At 0, 2, 4, and 6 h time points, […] samples were withdrawn from the test tubes, diluted into 10 mL of LB broth in a test tube, and swabbed in duplicate on agar plates to determine CFUs. These plates were incubated at 37° C. for 24 h, after which time the colonies were counted visually. […] Instead, 200 μL was removed from the test tube and directly swabbed on the agar plates.

[2] = system: B. subtilis subsp. spizizenii ATCC 6633; assay: MIC determination, species selectivity; type: cell-based; settings: Bacillus subtilis, ATCC6633; authentic sample, only trans isomers of chalcones; error reflects step size
Procedure: (§1) Each compound from Table 3 was tested for inhibitory activity at 2.5, 5, 7.5, 10, 15, 20, 25, and 30 μM in the susceptible overlaid strains: B. subtilis ATCC 6633, S. epidermidis ATCC 12228, and K. pneumoniae ATCC 4352. MIC assays were run in quadruplicate as described above (with shaking).

[3] = system: S. epidermidis ATCC 12228; assay: MIC determination, species selectivity; type: cell-based; settings: Staphylococcus epidermidis, ATCC12228; authentic sample, only trans isomers of chalcones; error reflects step size
Procedure: as §1

S. aureus ATCC 10390 [4] = assay: Kirby-Bauer disk diffusion assay on compound spots from cleaved macroarray; type: cell-based, Staphylococcus aureus; settings: loadings 30 μg/spot, 18 h incubation
Procedure: While the heterocyclic libraries were being synthesized, the chalcone macroarrays were analyzed using various direct assay techniques such as the Kirby-Bauer disk diffusion assay (FIG. 2E). Bauer, A. W.; Kirby, […].; Turck, M. Technical Bulletin of the Registry of Medical Technologists 1966, 36, 49-52. For this assay, the macroarray members are punched out from the membrane, cleaved from the support with TFA vapor, neutralized with ammonia vapor, and then placed on an agar bed inoculated with S. aureus. After incubating overnight, different diameters of zones of inhibition are measured as a factor of potency as well as solubility in the medium. Ammonia vapor neutralization was key in the disk diffusion assay, otherwise residual TFA vapor created a false positive signature. However, in this method, macroarrays have to be made in triplicate one for a replicate and one for compound characterization. We first evaluated test chalcone macroarrays (3) in antibacterial assays against S. aureus. Because the macroarrays were prepared on cellulose filter paper, we had convenient access to the compounds in disk form for standard disk diffusion assays. Compound spots were punched out of the macroarrays, subjected to vapor phase cleavage with acid (TFA), and neutralized (NH3) to afford disks containing ca. 30 μg of adsorbed compound [8]. These disks were manually placed on lawns of S. aureus, and zones of inhibition were measured after an 18 h incubation period. […] However, this antibacterial assay format had drawbacks: (1) the entire sample of compound was consumed during the assay, and thus replicate arrays needed to be synthesized to confirm activity, and (2) manipulating large numbers of compound disks was relatively labor intensive. Compound spots were cleaved with TFA and neutralized with NH3 as described herein. […] Compound spots were placed onto the agar, the plate was incubated at 37° C. for 18 h, and the diameters of the zones of inhibition were measured. […] Compound spots were subjected to the TFA cleavage conditions described above. The spots were next subjected to NH3 vapor to neutralize any remaining TFA. […] Vials containing the spots (or intact macroarrays) were placed inside a small evaporating dish, and this was placed into the NH4OH solution. The Pyrex dish was covered, and NH3 vapor was allowed to slowly diffuse into the vials. After 1 h, the vials were removed from the NH3 chamber, and the spots were allowed to stand open in a fume hood for at least 15 min to vent prior to analysis in the following assays. This afforded dry, paper disks containing adsorbed compound. […] The plates were removed, and the diameters of the zones of inhibition were measured in mm using a ruler (see FIG. 1A).

O=C(/C=C/c1cc(C(F)(F)F)cc(C(F)(F)F)c1)c1cccc(O)c1 [Compound 4Bv, 3′-hydroxy-3,5-bis(trifluoromethyl)chalcone]
MIC (S. aureus ATCC 10390 [1]; Table 2, authentic sample synthesized according to standard techniques, read-out: observed MIC): 3.3 ± 0.3 µM (≈ 1.19 µg/mL) | MIC (S. aureus ATCC 10390 [1]; Table 3, authentic sample, only trans isomers of chalcones, error reflects step size in the serial dilutions, read-out: S. aureus MIC): 3.5 ± 0.5 µM (≈ 1.26 µg/mL) | MIC against S. aureus 10390 (S. aureus ATCC 10390 [1]; values quoted in killing-curve protocol, unit not given): ca. 3.5 | mode of activity (bacteriostatic or bactericidal) (S. aureus 10390): bacteriostatic | MIC [2]: 8.8 ± 1.2 µM (≈ 3.17 µg/mL) | MIC [3]: 3.8 ± 1.2 µM (≈ 1.37 µg/mL) | Zones of inhibition (S. aureus ATCC 10390 [4]): 22 mm
